In ChEMBL document CHEMBL5506024, “Multitarget μ-Opioid Receptor Agonists─Neuropeptide FF Receptor Antagonists Induce Potent Antinociception with Reduced Adverse Side Effects” (J Med Chem, 2024):
pEC50, pKi: −log10 of the molar value. Activity calls are given as the source filed them. Numbered stars: 1 amine (or outer) side, 2 acyl side, 3 side chain; on linkers, the order of the positions; unused ones are H or OH. Square brackets hold non-standard residues; d marks the D form. Peptide text beside a SMILES is read from it. Nva(5-(4-Bn-piperidin-1-yl)) = N[C@@H](CCCN1CCC(Cc2ccccc2)CC1)C(=O)O; X1 = O=C1[C@@H](N[*:1])Cc2ccccc2CN1CCC(=O)[*:2]; Dmt = Cc1cc(O)cc(C)c1C[C@H](N)C(=O)O

Columns and labels:
[1] = Toxicity in sc dosed C57BL/6N mouse assessed as induction of respiratory depression by measuring decrease in pulmonary rate by plethysmography; type: organism-based; conditions: in vivo
[2] = Induction of naltrexone-precipitated withdrawal syndrome in sc dosed C57BL/6N mouse assessed as vegetative signs administered for 8 days followed by naltrexone addition on day 9 after 2 hrs post last dose and measured after 30 mins; type: toxicity, organism-based; conditions: in vivo, 216.5 h, time 12990 min
[3] = system: Mus musculus; assay: Antinociceptive activity in mouse at 10 mg/kg, sc administered daily and measured on day 8; type: functional, organism-based
[4] = Induction of naltrexone-precipitated withdrawal syndrome in sc dosed C57BL/6N mouse assessed as somatic signs administered for 8 days followed by naltrexone addition on day 9 after 2 hrs post last dose and measured after 30 mins; type: toxicity, organism-based; conditions: in vivo, 216.5 h, time 12990 min
[5] = system: Mus musculus; assay: Antinociceptive activity in mouse assessed as basal nociceptive threshold at 10 mg/kg, sc administered daily and measured on day 2 to 7; type: functional, organism-based
[6] = system: Mus musculus; assay: Antinociceptive activity in mouse at 4.2 umol/kg, sc measured after 6 hrs in presence of naloxone methiodide by tail immersion test; type: functional, organism-based; conditions: dose 4.2 µmol/kg
[7] = system: Mus musculus; assay: Antinociceptive activity in mouse at 10 mg/kg, sc measured after 6 hrs in presence of naloxone methiodide by tail immersion test; type: functional, organism-based
[8] = Induction of motor coordination impairment in C57BL/6 mouse at 20 mg/kg, sc by rotarod assay; type: toxicity, organism-based; conditions: in vivo
[9] = biological target: T1, Neuropeptide FF receptor 2 (Homo sapiens, UniProt Q9Y5X5); assay: Antagonist potency at human NPFFR2 expressed in CHO cell membrane assessed as inhibition of NPVF induced cAMP response incubated for 1 hr by Topcount counting method; type: functional, cell membranes; conditions: read-out: pA2 (converted)
[10] = biological target: T2, Neuropeptide FF receptor 1 (Homo sapiens, UniProt Q9GZQ6); assay: Antagonist activity at human NPFFR1 expressed in CHO cell membrane assessed as inhibition of NPVF induced cAMP response at 5 uM incubated for 1 hr by Topcount counting method relative to control; type: functional, cell membranes; parameters: scale not given: the % may be the effect or the level left; conditions: filed as antagonist
[11] = Drug metabolism in human plasma assessed as H-Aba-betaAla-Bpa-Phe-NH2 formation measured upto 270 mins by LC-MS analysis; type: ADME, cell-free; conditions: 4.5 h
[12] = biological target: T1, Neuropeptide FF receptor 2; assay: Displacement of [125I]-1DMeNPFF from human NPFFR2 expressed in CHO cell membrane incubated for 1 hr by Topcount counting method; type: cell membranes
[13] = biological target: Nociceptin receptor (Homo sapiens) (UniProt P41146); assay: Agonist activity at human NOR expressed in HEK293 cells assessed as forskolin-induced cAMP accumulation; type: functional, cell-based
[14] = biological target: KiSS-1 receptor (Homo sapiens) (UniProt Q969F8); assay: Antagonist activity at human GPR54 expressed in CHO cells assessed as intracellular calcium release upto 10 uM by Fluo-4 AM dye based calcium mobilization assay; type: functional, cell-based
[15] = biological target: Kappa-type opioid receptor (Homo sapiens, UniProt P41145); assay: Partial agonist activity at human KOR expressed in HEK293 cells assessed as forskolin-induced cAMP accumulation in presence of IBMX; type: functional, cell-based; conditions: filed as partial agonist
[16] = biological target: Delta-type opioid receptor (Homo sapiens) (UniProt P41143); assay: Agonist activity at human DOP expressed in HEK293 cells assessed as inhibition of forskolin-induced cAMP accumulation; type: functional, cell-based; conditions: filed as agonist
[17] = system: Mus musculus; assay: Antinociceptive activity in mouse at 2.5 to 10 mg/kg, sc measured after 6 hrs by tail immersion test; type: functional, organism-based; conditions: dose 2.5-10 mg/kg
[18] = Drug metabolism in human plasma assessed as H-Dmt-D-Pro-OH formation measured upto 270 mins by LC-MS analysis; type: ADME, cell-free; conditions: 4.5 h
[19] = biological target: T1, Neuropeptide FF receptor 2; assay: Antagonist activity at human NPFFR2 expressed in CHO cell membrane assessed as inhibition of NPVF induced cAMP response at 5 uM incubated for 1 hr by Topcount counting method relative to control; type: functional, cell membranes; parameters: scale not given: the % may be the effect or the level left; conditions: filed as antagonist
[20] = Drug concentration in mouse plasma at 10 mg/kg, sc measured after 2 hrs by LC-MS/MS analysis; type: ADME, organism-based
[21] = Cmax in mouse at 10 mg/kg, sc measured upto 24 hrs by LC-MS/MS analysis; type: ADME, organism-based; conditions: in vivo
[22] = biological target: T3, Prolactin-releasing peptide receptor (Homo sapiens) (UniProt P49683); assay: Antagonist activity at human GPR10 expressed in CHO cells assessed as intracellular calcium release upto 10 uM by Fluo-4 AM dye based calcium mobilization assay; type: functional, cell-based
T3 sequence (whole entry): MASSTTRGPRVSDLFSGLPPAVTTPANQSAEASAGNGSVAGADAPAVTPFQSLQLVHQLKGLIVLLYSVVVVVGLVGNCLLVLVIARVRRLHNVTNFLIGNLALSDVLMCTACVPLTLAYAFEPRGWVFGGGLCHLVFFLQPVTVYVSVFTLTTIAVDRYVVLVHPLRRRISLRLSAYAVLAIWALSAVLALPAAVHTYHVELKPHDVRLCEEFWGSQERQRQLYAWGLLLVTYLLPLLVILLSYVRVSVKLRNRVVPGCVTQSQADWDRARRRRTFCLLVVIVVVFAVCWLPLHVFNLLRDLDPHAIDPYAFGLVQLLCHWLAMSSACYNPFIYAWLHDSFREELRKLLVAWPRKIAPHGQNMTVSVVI

[23] = biological target: T4, Mu-type opioid receptor (Homo sapiens, UniProt P35372); assay: Agonist activity at human Rluc8-tagged MOP expressed in HEK293 cells coexpressing eYFP-tagged beta-arrestin-2 assessed as beta-arrestin-2 recruitment incubated for 5 mins by luminometer analysis; type: functional, cell-based; conditions: hek293
[24] = biological target: T2, Neuropeptide FF receptor 1; assay: Displacement of [125I]-1DMeNPFF from human NPFFR1 expressed in CHO cell membrane at 0.5 uM incubated for 1 hr by Topcount counting method relative to control; type: cell membranes
[25] = biological target: T4, Mu-type opioid receptor; assay: Agonist activity at human MOP expressed in HEK293 cells coexpressing GloSensor-20F assessed as inhibition of forskolin-induced cAMP accumulation relative to control; type: functional, cell-based; conditions: filed as agonist
[26] = biological target: T1, Neuropeptide FF receptor 2; assay: Displacement of [125I]-1DMeNPFF from human NPFFR2 expressed in CHO cell membrane at 0.05 uM incubated for 1 hr by Topcount counting method relative to control; type: cell membranes; conditions: filed as antagonist
[27] = biological target: KiSS-1 receptor (Homo sapiens) (UniProt Q969F8); assay: Agonist activity at human GPR54 expressed in CHO cells assessed as intracellular calcium release upto 10 uM by Fluo-4 AM dye based calcium mobilization assay; type: functional, cell-based
[28] = Tmax in mouse at 10 mg/kg, sc measured upto 24 hrs by LC-MS/MS analysis; type: ADME, organism-based; conditions: in vivo
[29] = biological target: T4, Mu-type opioid receptor; assay: Agonist activity at human MOP expressed in HEK293 cells coexpressing GloSensor-20F assessed as inhibition of forskolin-induced cAMP accumulation; type: functional, cell-based
[30] = biological target: T5, Pyroglutamylated RF-amide peptide receptor (Homo sapiens) (UniProt Q96P65); assay: Antagonist activity at human GPR103 expressed in CHO cells assessed as intracellular calcium release upto 10 uM by Fluo-4 AM dye based calcium mobilization assay; type: functional, cell-based
T5 sequence (whole entry): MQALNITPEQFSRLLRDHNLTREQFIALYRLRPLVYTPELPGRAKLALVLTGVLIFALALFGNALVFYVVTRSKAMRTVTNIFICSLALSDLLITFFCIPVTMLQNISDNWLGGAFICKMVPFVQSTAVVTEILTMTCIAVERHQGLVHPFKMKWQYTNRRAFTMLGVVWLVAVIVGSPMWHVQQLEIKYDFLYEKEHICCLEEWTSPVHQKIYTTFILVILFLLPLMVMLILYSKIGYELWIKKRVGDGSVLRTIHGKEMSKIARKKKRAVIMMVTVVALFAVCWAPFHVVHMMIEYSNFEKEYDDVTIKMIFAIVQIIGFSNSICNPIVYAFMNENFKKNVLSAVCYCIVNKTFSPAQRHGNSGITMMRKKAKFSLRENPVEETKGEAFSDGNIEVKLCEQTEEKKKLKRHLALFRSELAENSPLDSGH

[31] = biological target: T5, Pyroglutamylated RF-amide peptide receptor (Homo sapiens); assay: Agonist activity at human GPR103 expressed in CHO cells assessed as intracellular calcium release upto 10 uM by Fluo-4 AM dye based calcium mobilization assay; type: functional, cell-based
[32] = Half life in mouse at 10 mg/kg, sc measured upto 24 hrs by LC-MS/MS analysis; type: ADME, organism-based; conditions: in vivo
[33] = biological target: T2, Neuropeptide FF receptor 1; assay: Antagonist potency at human NPFFR1 expressed in CHO cell membrane assessed as inhibition of NPVF induced cAMP response incubated for 1 hr by Topcount counting method; type: functional, cell membranes; conditions: read-out: pA2 (converted)
[34] = biological target: T2, Neuropeptide FF receptor 1; assay: Displacement of [125I]-1DMeNPFF from human NPFFR1 expressed in CHO cell membrane incubated for 1 hr by Topcount counting method; type: cell membranes
[35] = biological target: T3, Prolactin-releasing peptide receptor (Homo sapiens); assay: Agonist activity at human GPR10 expressed in CHO cells assessed as intracellular calcium release upto 10 uM by Fluo-4 AM dye based calcium mobilization assay; type: functional, cell-based

T1 sequence (Q9Y5X5 whole entry): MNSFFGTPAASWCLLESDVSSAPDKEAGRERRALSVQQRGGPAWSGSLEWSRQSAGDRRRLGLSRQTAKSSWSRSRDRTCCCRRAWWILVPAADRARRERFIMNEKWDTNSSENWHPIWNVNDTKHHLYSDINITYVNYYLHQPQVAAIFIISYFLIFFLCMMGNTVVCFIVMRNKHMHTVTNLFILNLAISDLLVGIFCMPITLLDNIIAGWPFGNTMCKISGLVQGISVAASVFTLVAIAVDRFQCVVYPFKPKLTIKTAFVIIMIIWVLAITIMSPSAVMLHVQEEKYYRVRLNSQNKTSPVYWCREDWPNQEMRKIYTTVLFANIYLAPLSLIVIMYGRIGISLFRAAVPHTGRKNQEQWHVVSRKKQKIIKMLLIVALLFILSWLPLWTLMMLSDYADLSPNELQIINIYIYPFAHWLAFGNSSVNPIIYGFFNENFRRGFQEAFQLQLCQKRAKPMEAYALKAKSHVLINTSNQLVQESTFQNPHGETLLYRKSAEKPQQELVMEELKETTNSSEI
T4 sequence (P35372 whole entry): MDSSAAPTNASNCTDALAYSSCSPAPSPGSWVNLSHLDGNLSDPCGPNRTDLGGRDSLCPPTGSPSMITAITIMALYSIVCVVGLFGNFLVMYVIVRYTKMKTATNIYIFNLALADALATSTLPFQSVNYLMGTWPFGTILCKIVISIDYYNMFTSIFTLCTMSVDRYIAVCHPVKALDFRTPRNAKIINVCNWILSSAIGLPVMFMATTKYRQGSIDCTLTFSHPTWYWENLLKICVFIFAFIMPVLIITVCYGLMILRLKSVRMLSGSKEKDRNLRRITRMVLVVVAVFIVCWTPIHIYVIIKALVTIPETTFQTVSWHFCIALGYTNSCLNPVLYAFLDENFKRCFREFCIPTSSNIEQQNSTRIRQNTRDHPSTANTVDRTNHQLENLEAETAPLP
T2 sequence (Q9GZQ6 whole entry): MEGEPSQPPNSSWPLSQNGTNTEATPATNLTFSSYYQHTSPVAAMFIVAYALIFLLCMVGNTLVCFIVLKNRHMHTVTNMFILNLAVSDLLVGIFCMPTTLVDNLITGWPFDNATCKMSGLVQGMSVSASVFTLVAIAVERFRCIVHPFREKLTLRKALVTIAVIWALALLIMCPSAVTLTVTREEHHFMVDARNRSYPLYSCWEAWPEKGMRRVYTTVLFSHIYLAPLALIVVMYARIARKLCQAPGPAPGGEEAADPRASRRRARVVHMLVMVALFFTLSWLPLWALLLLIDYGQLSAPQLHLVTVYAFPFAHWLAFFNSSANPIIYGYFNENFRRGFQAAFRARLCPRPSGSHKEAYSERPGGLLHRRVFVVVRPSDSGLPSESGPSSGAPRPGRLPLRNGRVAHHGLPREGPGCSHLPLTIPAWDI
Sequence of KiSS-1 receptor (Homo sapiens) (Q969F8 whole entry): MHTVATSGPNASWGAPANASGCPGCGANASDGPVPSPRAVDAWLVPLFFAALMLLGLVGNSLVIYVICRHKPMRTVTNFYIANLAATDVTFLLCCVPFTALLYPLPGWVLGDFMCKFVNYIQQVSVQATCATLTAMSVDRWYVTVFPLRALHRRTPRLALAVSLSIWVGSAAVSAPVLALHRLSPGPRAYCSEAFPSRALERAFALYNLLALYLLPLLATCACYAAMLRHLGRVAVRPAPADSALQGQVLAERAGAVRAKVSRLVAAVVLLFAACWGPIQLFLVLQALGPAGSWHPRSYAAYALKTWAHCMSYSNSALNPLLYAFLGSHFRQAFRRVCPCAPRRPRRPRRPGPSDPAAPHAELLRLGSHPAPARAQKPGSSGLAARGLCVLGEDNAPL
Sequence of Delta-type opioid receptor (Homo sapiens) (P41143 whole entry): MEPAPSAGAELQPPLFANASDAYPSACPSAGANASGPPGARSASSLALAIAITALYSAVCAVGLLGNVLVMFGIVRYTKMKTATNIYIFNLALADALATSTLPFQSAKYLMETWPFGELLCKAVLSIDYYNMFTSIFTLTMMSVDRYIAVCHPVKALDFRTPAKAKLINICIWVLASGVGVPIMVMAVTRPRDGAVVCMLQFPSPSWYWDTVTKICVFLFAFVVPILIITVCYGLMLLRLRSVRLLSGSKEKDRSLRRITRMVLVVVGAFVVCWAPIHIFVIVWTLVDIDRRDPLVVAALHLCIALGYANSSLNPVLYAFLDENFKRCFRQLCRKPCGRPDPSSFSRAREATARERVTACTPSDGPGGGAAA
Sequence of Kappa-type opioid receptor (P41145 whole entry): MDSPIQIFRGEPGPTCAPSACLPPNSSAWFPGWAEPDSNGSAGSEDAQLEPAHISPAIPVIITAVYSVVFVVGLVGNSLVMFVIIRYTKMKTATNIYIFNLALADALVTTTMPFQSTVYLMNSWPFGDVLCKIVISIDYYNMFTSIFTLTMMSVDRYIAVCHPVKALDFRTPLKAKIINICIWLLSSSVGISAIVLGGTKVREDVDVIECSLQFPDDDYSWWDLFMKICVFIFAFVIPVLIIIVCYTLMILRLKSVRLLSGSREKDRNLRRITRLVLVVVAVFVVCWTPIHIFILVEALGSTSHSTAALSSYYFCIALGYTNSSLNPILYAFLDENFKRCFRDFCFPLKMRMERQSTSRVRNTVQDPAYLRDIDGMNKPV
Sequence of Nociceptin receptor (Homo sapiens) (P41146 whole entry): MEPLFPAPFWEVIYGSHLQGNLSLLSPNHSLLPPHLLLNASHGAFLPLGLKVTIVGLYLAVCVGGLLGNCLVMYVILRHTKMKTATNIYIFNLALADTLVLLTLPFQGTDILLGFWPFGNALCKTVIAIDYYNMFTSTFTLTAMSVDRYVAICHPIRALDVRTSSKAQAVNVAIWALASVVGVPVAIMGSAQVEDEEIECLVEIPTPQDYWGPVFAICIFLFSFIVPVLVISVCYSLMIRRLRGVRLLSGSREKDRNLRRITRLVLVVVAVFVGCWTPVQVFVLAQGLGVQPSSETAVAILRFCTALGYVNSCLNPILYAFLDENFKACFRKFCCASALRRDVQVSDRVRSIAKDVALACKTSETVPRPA

CN1CC[C@]23c4c5ccc(O)c4O[C@H]2[C@@H](O)C=C[C@H]3[C@H]1C5 [MORPHINE]
Activity [1]: Dose-Dependent Effect | Activity [2]: Toxic | Activity [3]: inactive | Activity [4]: Toxic | Activity [5]: inactive | Activity [6]: inactive | Activity [7]: inactive

CN(C)CCC=C1c2ccccc2CCc2ccccc21 [AMITRIPTYLINE]
Activity [8]: Toxic

Cc1cc(O)cc(C)c1C[C@H](N)C(=O)N1CCC[C@@H]1C(=O)N[C@H]1Cc2ccccc2CN(CCC(=O)N[C@@H](CCCN2CCC(Cc3ccccc3)CC2)C(=O)N[C@@H](Cc2ccccc2)C(N)=O)C1=O (H-[Dmt][dP][X1][Nva(5-(4-Bn-piperidin-1-yl))]F-NH2)
Kb [9]: 380 nM | Activity [10]: 75% | Drug metabolism [11]: Metabolite_Detected | pKi [12]: 7.54 | Activity [13]: inactive | Activity [14]: inactive | Activity [15]: Active | Activity [16]: Active | Activity [17]: Active | Drug metabolism [18]: Metabolite_Detected | Activity [19]: 46% | concentration at 2 h [20]: 10.7 nM | Cmax [21]: 345 nM | Activity [22]: inactive | EC50 [23]: Not Active | Activity [24]: 33% | Emax [25]: 50% | Activity [26]: 72% | Activity [27]: inactive | Tmax [28]: 8.34 min | pEC50 [29]: 8.10 | Activity [30]: inactive | Activity [31]: inactive | half-life [32]: 16.8 min | Kb [33]: 6310 nM | pKi [34]: 5.92 | Activity [35]: inactive
